What all share (assay): Cancer cell growth, Cell Titer-Glo cell viability assay, 72 hours
Common to all, as to type: cell-based
(In general: Cellular ATP, detected with luciferase, serves as a proxy for viable cell number.)

The test system of test [1] is MDS-RAEB (myelodysplastic syndrome-excess blasts type) cell line SKM-1. Particulars: SKM-1, 72 hours. From the text:
(§1) In the examples, we used acute myelocytic leukemia (AML) OCI-AML-3, acute promyelocytic leukemia cell line NB-4, MDS-RAEB (myelodysplastic syndrome-excess blasts type) cell line SKM-1, human leukemia cell Nomo-1, acute myeloid leukemia cell line MOLM14, acute myeloid leukemia cell line MOLM13, acute myeloid leukemia cell line MV4-11, acute myeloid leukemia cell line HL-60, acute myeloid leukemia cell line OCI-AML-2, histiocytic lymphoma U-937, acute B cell leukemia cell line MEC-1, acute B cell leukemia cell line MEC-2, acute megakaryoblastic leukemia CMK, hamster lung cell CHL, hamster ovary cell CHO, human non-small cell lung cancer cell H1975, human non-small cell lung cancer cell H358, human small cell lung cancer cell H209, human lung adenocarcinoma cell H1395, human non-small cell lung cancer cell PC-9, human lung cancer cell H3122, human non-small cell lung cancer cell H2122, human non-small cell lung cancer cell H1915, human lung adenocarcinoma cell H1355, human non-small cell lung cancer cell HCC827, human breast cancer cell MDA-MB-231, human breast cancer cell MDA-MB-468, human breast cancer cell MCF-7, human breast cancer cell T47D, human breast cancer cell SK-Br-3, the above cells were purchased from ATCC.
(§2) Cell Titer-Glo® (Promega, USA) chemical self-luminescence cell viability assay kit was used to detect the number of viable cells by quantitatively measuring ATP in living cells, according to which to calculate GI50 and IC50.

Test [2] relates to acute B cell leukemia cell line MEC-1. As to conditions: MEC-1, 72 hours.
Text: as §1, §2

The subject of test [3] is acute B cell leukemia cell line MEC-2. As to conditions: MEC-2, 72 hours.
Text: as §1, §2

In test [4] the test system is acute megakaryoblastic leukemia CMK.
Text: as §1, §2

Test [5] deals with acute myelocytic leukemia (AML) OCI-AML-3. Particulars: OCI-AML3, 72 hours.
Text: as §1, §2

Test [6] has as its system acute myeloid leukemia cell line HL-60. As to conditions: HL-60, 72 hours.
Text: as §1, §2

The test system of test [7] is acute myeloid leukemia cell line MOLM13. As to conditions: MOLM-13, 72 hours.
Text: as §1, §2

Test [8] concerns acute myeloid leukemia cell line MOLM14. As to conditions: MOLM-14, 72 hours.
Text: as §1, §2

Test [9] deals with acute myeloid leukemia cell line MV4-11. As to conditions: MV4-11, 72 hours.
Text: as §1, §2

For test [10], the system named is acute myeloid leukemia cell line OCI-AML-2. Particulars: OCI-AML2, 72 hours.
Text: as §1, §2

In test [11] the test system is acute promyelocytic leukemia cell line NB-4. Particulars: NB4, 72 hours.
Text: as §1, §2

Test [12] has as its system hamster lung cell CHL. Particulars: for GI50: CHL, 72 hours.
Text: as §1, §2

Test [13] relates to hamster ovary cell CHO. Particulars: for GI50: CHO, 72 hours.
Text: as §1, §2

The test system of test [14] is histiocytic lymphoma U-937. As to conditions: U-937, 72 hours.
Text: as §1, §2

For test [15], the system named is human leukemia cell Nomo-1. As to conditions: Nomo-1, 72 hours.
Text: as §1, §2

Test [16] deals with human breast cancer cell MCF-7. As to conditions: MCF7, MCF-7, 72 hours.
Text: as §1, §2

In test [17] the test system is human breast cancer cell MDA-MB-231. As to conditions: MDA-MB-231, 72 hours.
Text: as §1, §2

Test [18] relates to human breast cancer cell MDA-MB-468. Particulars: MDA-MB-468, 72 hours.
Text: as §1, §2

In test [19] the test system is human breast cancer cell SK-Br-3. Particulars: SK-Br-3, 72 hours.
Text: as §1, §2

Test [20] concerns human breast cancer cell T47D.
Text: as §1, §2

For test [21], the system named is human lung adenocarcinoma cell H1355. As to conditions: NCI-H1355, H1355, 72 hours.
Text: as §1, §2

Test [22] deals with human lung adenocarcinoma cell H1395. As to conditions: NCI-H1395, H1395, 72 hours.
Text: as §1, §2

Test [23] relates to human lung cancer cell H3122. As to conditions: NCI-H3122, H3122, 72 hours.
Text: as §1, §2

In test [24] the test system is human non-small cell lung cancer cell H1915. Particulars: NCI-H1915, H1915, 72 hours.
Text: as §1, §2

The test system of test [25] is human non-small cell lung cancer cell H1975. Particulars: NCI-H1975, H1975, 72 hours.
Text: as §1, §2

Test [26] relates to human non-small cell lung cancer cell H2122. As to conditions: NCI-H2122, H2122, 72 hours.
Text: as §1, §2

Test [27] has as its system human non-small cell lung cancer cell H358. As to conditions: NCI-H358, H358, 72 hours.
Text: as §1, §2

The subject of test [28] is human non-small cell lung cancer cell HCC827. As to conditions: HCC827, 72 hours.
Text: as §1, §2

The subject of test [29] is human non-small cell lung cancer cell PC-9. Particulars: PC-9, 72 hours.
Text: as §1, §2

Test [30] relates to human small cell lung cancer cell H209. As to conditions: NCI-H209, H209, 72 hours.
Text: as §1, §2

As to `COCCN[C@H]1CC[C@H](Nc2cc(-c3csc(OCC4CCOCC4)n3)c(Cl)cn2)CC1` [Compound 16, (1r,4r)-N^1-(5-chloro-4-(2-((tetrahydro-2H-pyran-4-yl)methoxy)thiazol-4-yl)pyridin-2-yl)-N^4-(2-methoxyethyl)cyclohexane-1,4-diamine], the GI50 was 500 nM in test [1] (Homo sapiens); 1400 nM in test [2] (Homo sapiens, MEC1); 970 nM in test [3] (MEC2); 1400 nM in [4]; 630 nM in [5] (Homo sapiens, OCI-AML-3); 450 nM in test [6] (Homo sapiens). Also, the GI50 turned out to be 570 nM in [7] (Homo sapiens); 620 nM in test [8] (Homo sapiens); 630 nM in [9] (Homo sapiens); 2100 nM in test [10] (Homo sapiens); 580 nM in test [11]; 3300 nM in test [12]. Also, the GI50 in [13] amounted to 1300 nM; in [14] (Homo sapiens), 600 nM; in [15] (Homo sapiens), 1500 nM.
For the compound `COCCN[C@H]1CC[C@H](Nc2cc(-c3csc(SCC4CCOCC4)n3)c(Cl)cn2)CC1` [Compound 17, (1r, 4r)-N^1-(5-chloro-4-(2-(((tetrahydro-2H-pyran-4-yl)methyl)mercapto)thiazol-4-yl)pyridin-2-yl)-N^4-(2-methoxyethyl)cyclohexane-1,4-diamine], the GI50 came out at 330 nM in test [1]; 800 nM in test [2]; 700 nM in [3]; 1100 nM in [4]; 980 nM in test [5]; 160 nM in [6]. In addition, the GI50 in [7] amounted to 340 nM; in test [8], 360 nM; in test [9], 1100 nM; in test [10], 800 nM; in [11], 350 nM; in test [12], 5600 nM. Also, the GI50 in [13] amounted to 610 nM; in test [14], 300 nM; in test [15] it was 930 nM.
For `COCCN[C@H]1CC[C@H](Nc2cc(-c3csc(NCC4CCOCC4)n3)ccn2)CC1` [Compound 18, (1r,4r)-N^1-(2-methoxyethyl)-N^4-(4-(2-(((tetrahydro-2H-pyran-4-yl)methyl)amino)thiazol-4-yl)pyridin-2-yl)cyclohexane-1,4-diamine], the GI50 in [1] (Homo sapiens) was determined as 1100 nM; in [2] (Homo sapiens, MEC1), 2500 nM; in test [3] (MEC2), 1700 nM; in [4], 4000 nM; in test [5] (Homo sapiens, OCI-AML-3) it was 2100 nM; in [6] (Homo sapiens), 980 nM. Also, the GI50 was determined as 1200 nM in test [7] (Homo sapiens); 1200 nM in [8] (Homo sapiens); 910 nM in [9] (Homo sapiens); 1100 nM in test [10] (Homo sapiens); 1300 nM in test [11]; 1200 nM in [12]. For the same compound, the GI50 in test [13] turned out to be 4100 nM; in test [14] (Homo sapiens) it was 1100 nM; in test [15] (Homo sapiens), 3000 nM.
`CCc1cnn2c(NCc3ccc[n+]([O-])c3)cc(N3CCCC[C@H]3CCO)nc12` [Dinaciclib, reference compound]: the concentration for 50% growth inhibition (GI50) is 10 nM in [1] (Homo sapiens); 11 nM in [2] (Homo sapiens, MEC1); 10 nM in [3] (MEC2); 9.9 nM in test [4]; 11 nM in test [5] (Homo sapiens, OCI-AML-3); 8 nM in [6] (Homo sapiens). The GI50 is 3.3 nM in [7] (Homo sapiens); 4.5 nM in test [8] (Homo sapiens); 7.6 nM in test [9] (Homo sapiens); 13 nM in test [10] (Homo sapiens); 10 nM in [11]; 180 nM in [12]. Further, the GI50 was found to be 160 nM in test [13], 3.6 nM in test [14] (Homo sapiens) and 34 nM in [15] (Homo sapiens).
As for `NC1CCC(Nc2cc(-c3cccc(NCc4cccc(F)c4)n3)c(Cl)cn2)CC1` (centres unmarked) [HY-16462, reference compound], the GI50 in test [1] stood at 40 nM; in [2], 48 nM; in test [3], 36 nM; in test [4], 42 nM; in [5], 47 nM; in [6] it was 37 nM. Besides, the GI50 in [7] was found to be 32 nM; in test [8], 33 nM; in [9] it was 27 nM; in test [10], 71 nM; in test [11], 32 nM; in [12], 200 nM. Further, the results for the GI50 in test [13], in [14] and in [15] were 290 nM, 31 nM and 63 nM, respectively. Moreover, the “inhibitory effect on normal cell CHL (in words)” value in test [12] (CHL cells) is listed as “certain inhibitory effects”. For the same compound, in test [13] (CHO cells), the “inhibitory effect on normal cell CHO (in words)” value was “certain inhibitory effects”.
For `CC(=O)c1c(C)c2cnc(Nc3ccc(N4CCNCC4)cn3)nc2n(C2CCCC2)c1=O` [Palbociclib, reference compound], the IC50 is 1700 nM in [16]; 5100 nM in test [17]; 2700 nM in [18]; 3200 nM in test [19]; 4100 nM in [20]; about 10000 nM in test [21]. Besides, the IC50 in [22] was over 10000 nM; in [23], 1200 nM; in [24], 3600 nM; in test [25], over 10000 nM; in [26] it was 1600 nM; in test [27] it was 6600 nM. The IC50 in test [28], in [29] and in [30] was over 10000 nM each time.

Usually GI50 stands for the concentration at which growth is held to half of that of the control. Read a high GI50 as lower sensitivity of the cells. Broadly, the IC50 is the point on the concentration scale where inhibition reaches its midpoint. A high value points to weaker potency in that assay.

The values are drawn from patent publication US10952999B2, “Inhibitor of cyclin-dependent kinase CDK9” (GENFLEET THERAPEUTICS (SHANGHAI) INC., priority 2017, dated 2021).
